# Experimental data: patent US20240409934A1, “FOXO1-TARGETED THERAPY FOR THE TREATMENT OF CANCER” (BOARD OF REGENTS, THE UNIVERSITY OF TEXAS SYSTEM, priority 2021, published 2024)
# Experiments:
# A172 = assay: Colony formation assay (crystal violet); type: cell-based; settings: treated five days
# Description: (§1) Cell culture and drug treatments. Cell lines were obtained from ATCC (American Type Culture Collection, Manassas, VA) and grown under standard conditions (5% CO2, 10% FBS (fetal bovine serum), with 5% antifungal/antibacterial). Cell lines were tested for Mycoplasma using the MycoAlert Mycoplasma Detection Kit (Lonza, Basel Switzerland, cat: LT07-218); all experiments were done with mycoplasma negative cells. U87MG cells were propagated in MEM (Minimal Essential Medium). BT549 and DBTRG cells were propagated in RPMI (Roswell Park Memorial Institute 1640 Medium). LN18, U118MG, A172 and LN229 cells were propagated in DMEM (Dulbecco's Modified Eagle Medium). Neurosphere/cancer stem cell cultures for U87MG and BT549 cell lines were plated with 40,000 cells per mL in 3D Tumorsphere Medium XF (Sigma cat: C-28070, Burlington, MA). BT549 cancer stem cell cultures were supplemented with 1XB27 XenoFree CTS (Gibco/Thermo Fisher Waltham, MA, USA). AS1842856 was purchased from Calbiochem (Danvers, MA) and utilized at 200 nM, 500 nM and 1 μM final concentrations as indicated. AS1708727 was purchased from MedChem Express (Monmouth Junction, NJ) and was used at 0.5 μM, 1.0 µM and 2.0 μM concentrations. 5-aza-2′-deoxycytidine (5-AZA) was purchased from Millipore/Sigma (Burlington, MA) and utilized at a final concentration of 3 μM. Cells were plated at a density of 2,700 cells per mL and were treated five days with indicated drug. Treatments were investigated in triplicate (in numerous independent experiments) and stained with crystal violet. Plates were aspirated of media then each well was washed with 1.0 mL of 1x phosphate buffered saline (PBS) once before being stained with 1.0 mL of crystal violet stain (0.5% crystal violet in buffered formalin) and incubated for 15 minutes. The stain was aspirated, and wells were washed 3 times with 0.5 mL of 1x PBS. After collections were completed, crystal violet-stained plates were solubilized using 0.5 mL on each well of 10% acetic acid and placed on shaker for 1 hour. Solubilized samples were transferred to 96 well plates and quantified on a spectrophotometer at 590 nm. Quantified plates were analyzed with a Tukey test. Error bars were added using the standard deviation. Cells were plated at 2,700 cells per mL and were treated five days with the indicated drug. Treatments were investigated in triplicate (in numerous independent experiments) and stained with crystal violet. Plates were aspirated of media, then each well was washed with 1.0 mL of 1× phosphate-buffered saline (PBS) once before being stained with 1.0 mL of crystal violet stain (0.5% crystal violet in buffered formalin) and incubated for 15 minutes. The stain was aspirated, and cells were washed three times with 0.5 mL of 1×PBS. After collections were completed, crystal violet-stained plates were solubilized using 0.5 mL on each well of 10% acetic acid and placed on a shaker for 1 hour. Solubilized samples were transferred to 96 well plates and quantified on a spectrophotometer at 590 nm using iMark Microplate Absorbance Reader (Bio-Rad, Hercules, CA). Quantified plates were analyzed with a Tukey Test. Error bars were added using the standard deviation.
# LN18 = assay: Colony formation assay (crystal violet); type: cell-based; settings: treated five days
# Description: as §1
structure (smiles),measurement,setting,value
"CCn1cc(C(=O)O)c(=O)c2c(N)c(F)c(NC3CCCCC3)cc21 [AS1842856, 5-Amino-7-(cyclohexylamino)-1-ethyl-6-fluoro-4-oxo-1,4-dihydroquinoline-3-carboxylic acid]",colony formation,A172,fewer cells with 200 nM drug treatment with further reductions using 500 nM and 1 μM drug
same,colony formation,LN18,fewer cells with 200 nM drug treatment with further reductions using 500 nM and 1 μM drug
